Data published in paper PMC5332298 (Nature cell biology, 2017).
Read-outs that look alike come from different tables or passages of the source.

Key:
LINK-A-PIP3 interaction [1] = test: RNA-lipid overlay assay on PIP arrays with soluble competitors; type: binding; settings: 100:1 molar ratio to RNA
LINK-A-PIP3 interaction [2] = test: RNA-lipid vesicles; type: binding; settings: 100:1 molar ratio to PIP3
[3] = tested on: LINK-A-PIP3 interaction in MDA-MB-231 cells; test: RIP assay using a PIP3 antibody; settings: MDA-MB-231 cells treated with PI3K inhibitor
MDA-MB-231 spheroids [4] = test: 3D spheroid BME cell invasion assay; type: cell-based, Human; settings: 50 nM MK2206 or 25 nM perifosine, 4 days
AKT-PIP3 binding = AKT-PIP3 binding (Homo sapiens, UniProt P31749); test: biochemical
MDA-MB-231 spheroids [5] = test: 3-D spheroid fluorometric proliferation/viability assay; type: cell-based, Human; settings: for proliferation (growth) of spheroids: 50 nM MK2206 or 25 nM perifosine, 4 days
[6] = tested on: MS2-LINK-A-PIP3 interaction in MDA-MB-231 cells; test: MS2-TRAP assay with PIP3 mass ELISA; type: cell-based, Human; settings: cell permeable competitor 100 µM, 2 hrs
[7] = molecular target: AKT (His6-tagged recombinant, ThermoFisher) (UniProt P31749 1-480); test: Alpha competition assay
AKT (His6-tagged recombinant, ThermoFisher), sequence (P31749 whole entry): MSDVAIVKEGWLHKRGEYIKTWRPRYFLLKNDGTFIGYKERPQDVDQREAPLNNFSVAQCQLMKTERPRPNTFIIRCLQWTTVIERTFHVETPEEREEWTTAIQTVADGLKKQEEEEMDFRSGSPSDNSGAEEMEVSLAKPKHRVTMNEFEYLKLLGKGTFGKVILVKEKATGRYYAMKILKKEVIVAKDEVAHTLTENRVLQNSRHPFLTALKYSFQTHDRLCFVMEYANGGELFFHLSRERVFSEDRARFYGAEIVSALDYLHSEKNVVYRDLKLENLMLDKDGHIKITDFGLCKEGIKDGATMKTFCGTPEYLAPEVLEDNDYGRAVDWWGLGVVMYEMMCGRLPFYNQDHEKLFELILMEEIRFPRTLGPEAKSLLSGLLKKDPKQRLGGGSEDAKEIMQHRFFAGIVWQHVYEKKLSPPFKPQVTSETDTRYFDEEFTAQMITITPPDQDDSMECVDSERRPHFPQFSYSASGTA

AKT-PIP3 binding, sequence (P31749 whole entry): as above

## O=P(O)(O)OC1[C@H](O)[C@H](OP(=O)(O)O)C(OP(=O)(O)O)[C@H](OP(=O)(O)O)[C@H]1O (stereo partly drawn) [IP4, D-myo-Inositol 1,3,4,5-tetrakisphosphate]
LINK-A-PIP3 interaction [1]
  effect of soluble competitor on LINK-A binding to PIP array: abolished
LINK-A-PIP3 interaction [2]
  effect of competitor on recruitment of LINK-A ΔPC to PIP3-containing GUVs: abolished

## O=c1cc(N2CCOCC2)oc2c(-c3ccccc3)cccc12 [LY294002]
[3]
  LINK-A-PIP3 interaction in vivo (RIP with PIP3 antibody): abolished

## NC1(c2ccc(-c3nc4ccn5c(=O)[nH]nc5c4cc3-c3ccccc3)cc2)CCC1 [MK2206]
MDA-MB-231 spheroids [4]; LINK-A PIP3-BM−/− spheroids
  invasion of spheroids: efficiently inhibited
MDA-MB-231 spheroids [4]; LINK-A PIP3BM+/+ spheroids
  invasion of spheroids: undetectable effect
AKT-PIP3 binding; in vitro, presence of FL LINK-A
  antagonism of the inhibitory effect by FL LINK-A: 753 fold
MDA-MB-231 spheroids [5]; LINK-A PIP3-BM−/− spheroids
  proliferation (growth) of spheroids: efficiently inhibited
MDA-MB-231 spheroids [5]; LINK-A PIP3BM+/+ spheroids
  proliferation (growth) of spheroids: undetectable effect

## O=P(O)(O)OC1[C@@H](OP(=O)(O)O)[C@H](OP(=O)(O)O)C(O)[C@H](OP(=O)(O)O)[C@H]1OP(=O)(O)O (stereo partly drawn) [PI(1,3,4,5,6)P5]
[6]
  MS2-LINK-A-associated PIP3 (PIP3 mass ELISA): impaired

## CCCCCCCCCCCCCCCCCCOP(=O)([O-])OC1CC[N+](C)(C)CC1 [perifosine]
MDA-MB-231 spheroids [4]; LINK-A PIP3-BM−/− spheroids
  invasion of spheroids: efficiently inhibited
MDA-MB-231 spheroids [4]; LINK-A PIP3BM+/+ spheroids
  invasion of spheroids: undetectable effect
AKT-PIP3 binding
  antagonism of the inhibitory effect by FL LINK-A: 140 fold
AKT-PIP3 binding; IC50 for inhibiting AKT-PIP3 binding
  IC50: 4.8 µM
MDA-MB-231 spheroids [5]; LINK-A PIP3-BM−/− spheroids
  proliferation (growth) of spheroids: efficiently inhibited
MDA-MB-231 spheroids [5]; LINK-A PIP3BM+/+ spheroids
  proliferation (growth) of spheroids: undetectable effect
MDA-MB-231 spheroids [5]; spheroid viability IC50
  sensitization of LINK-A PIP3-BM−/− spheroids vs PIP3-BM+/+: about 20,000 fold

## Phosphatidylinositol-3,4,5-trisphosphate [PIP3]
LINK-A-PIP3 interaction [1]
  effect of soluble competitor on LINK-A binding to PIP array: abolished

## CAGGGUAGACUCGCUCUG (structured_RNA) [LINK-A nt 1100-1117 WT]
[7]
  binding result: binds
